Reference: US20100093675A1, “NOVEL METHOD” (BIOXELL S.P.A., priority 2006, published 2010)
“Also recorded” adds a separate entry of the source.

Tests used:
Balb/c mice = assay: Mouse caecum abrasion model of post surgical adhesion formation; assay type: in vivo; details: for total adhesions score: sacrifice day seven, vs vehicle; for adhesion score / length (mm) of caecum adherent to peritoneum, difference to vehicle groups: Compound X 200, Compound Y 30, calcitriol 0.6 ug/kg i.p. once, then orally at MTD (100, 3, 0.3 ug/kg) once a day for 4 days, day seven, Anova with Bonferroni, FIG. 3
From the text: Female BALB/c mice (20 g; Charles River Breeding Laboratories) were used for all experiments. All mice were maintained under standard conditions of food and water ad libitum on a 12-hour day-night cycle according to Home Office regulations.
Adhesions were induced in mice with a protocol based on a procedure developed by Sulaiman and colleagues (Sulaiman H, Gabella G, Davis C, Mutsaers S E, Boulos P, Laurent G J, Herrick S E: Growth of nerve fibres into murine peritoneal adhesions. J Pathol 2000, 192:396-403). Briefly, mice were anesthetized with a mixture of inhaled isoflurane and oxygen, and a midline incision was made through the abdominal wall and peritoneum. A standard site (6 mm diameter and 1 mm depth), midway and 0.5 cm lateral to the midline incision on the left abdominal wall, was injured scraping 30 times with a scalpel blade. The cecum was isolated and scraped 30 times on its lateral aspect with a scalpel blade, after first irrigating with 0.9% sterile saline. The two injured surfaces were then apposed by placing two horizontal mattress sutures (8/0 Ethilon; Ethicon, Berkshire, UK) 1 cm apart. The midline incision was closed in two layers; the linea-alba with a continuous suture, and then the skin using michel suture clips (Aesculap, Tuttlingen Germany). This model was validated using leuprolide acetate, a GnRH agonist (Enantone, Takeida) injected at 1 mg/kg one week before surgery. The animals were sacrified at day 7 as usual and adhesion score reduction was evaluated.
To assess the effects of vitamin D compounds on adhesion formation, peritoneal adhesions were induced in 10 animals that were randomized to experimental groups receiving the vitamin D compound or vehicle. In the initial study, animals in the experimental group (n=5) received 0.1-ml i.p. injection of 200 ug/kg of Compound X in saline solution or vehicle (saline solution) only (n=5), at the surgery day then 4 days of daily oral administration (Compound X 100 ug/kg in miglyol or miglyol vehicle only). A second experiment was done with one group of animals (n=5) receiving 0.1-ml i.p. injection of 6 ug/kg of Compound Y in saline solution at the surgery day and then 4 days of daily oral administration (3 ug/kg in miglyol). Control animals (n=5) were similarly administered with vehicle alone (miglyol or saline solution according to the route of administration). The third experiment was designed to compare the effect of calcitriol. Briefly, 28 animals were operated and randomized four different groups: vehicle (miglyol or saline solution according to the route of administration) (n=13), Compound X i.p. […] 30 ug/kg plus three days oral administration at MTD (n=5), calcitriol i.p. […] All animals were killed at 7 days, and the adhesions were quantified in a blinded fashion. Each animal received an adhesion score based on the number, length and strength of adhesions formed. Millimetres of caecum adherent to peritoneum was also measured.

[1] = Colorimetric serum calcium level in animals of the adhesion experiment (FIG. 4); assay type: in vivo, mouse; details: animals of the FIG. 3 experiment
Description: (§1) Serum calcium was measured with Calcium Dry-fast kit (Sentinel diagnostics, Milan, Italy) with minor modification over the standard method: 10 ul serum, standard solution, or water are added to 100 ul of reconstituted assay reagent in a 96 well plate and incubated 5 min before reading at 550 nm, RT. Standards are run in quadruplicate, blank (water) in duplicate, and samples in triplicate.
Blood serum was obtained from animals of the experiment described in FIG. 3 and calcium level was measured.

[2] = Intraperitoneal single administration, serum calcium levels; assay type: in vivo, mouse; details: female BALB/c mice, single i.p., FIG. 9
Human mesothelial cells = assay: VEGF and TGF-b production by ELISA in human mesothelial cells; assay type: cell-based; details: different doses; supernatants at 48 h; FIG. 14
Description: Human mesothelial cells (Cornell Cell Repositories) were plated in a 96 well plate in the presence of different doses of Compound Y. Supernatants were harvested at 48 h and VEGF and TGF-b production was measured by ELISA. Total number of live cells were quantified by fluorimetric assay.

[3] = Serum calcemia after i.p. or i.p. plus oral Compound Y in CD1 mice (FIG. 5); assay type: in vivo, mouse; details: different doses i.p., or i.p. plus oral for 3 days at MTD (3 ug/kg), 24 h after the last administration
Description: as §1
CD1 mice were used to test serum calcemia after different doses of Compound Y administered i.p. A second group of animals received both i.p. (different doses) and oral administration for 3 days at MTD (3 ug/kg). Serum calcemia was measured 24 h after the last administration.

CPSS mouse model = assay: CPSS (cecal peritoneal scraping and sewing) mouse model of post-surgical adhesion, dose response; assay type: in vivo; details: 30-100-300 ug/kg i.p. at the end of surgery; sacrifice after two weeks; vs vehicle; FIG. 10
Description: Different doses of Compound Y were tested in the CPSS (cecal peritoneal scraping and sewing) mouse model of post-surgical adhesion. Animals were treated with 30-100-300 ug/kg of Compound Y in […] of sterile saline with 0.1% Tween-20, 0.1% ethanol, i.p. at the end of surgery. Animals were sacrificed after two weeks and peritoneral adhesion evaluated. Means of in situ score of the four groups were compared and percentage of reduction of the mean in situ score of treated animals compared with vehicle group was considered.

[4] = system: Human mesothelial cells (LP9); assay: tPA and PAI-1 production by ELISA in human mesothelial cells; assay type: cell-based; details: different doses; supernatants at 48 h; FIG. 8
Description: Human mesothelial cells (LP9, Cornell University) were plated in a 96 well plate in the presence of different doses of Compound Y. Supernatants were harvested at 48 h and tPA and PAI-1 production was measured by ELISA. tPA/PAI-1 ratio was calculated. Statistical analysis was performed by ANOVA test.

[5] = system: New Zealand White rabbits; assay: Double uterine horn (DUH) rabbit model of post-surgical adhesions; assay type: in vivo
Description: Animals: Twenty eight, female New Zealand White rabbits, 2.4-2.7 kg, were purchased from Irish Farms (Norco, Calif.) and quarantined for at least 2 days prior to use. Seven rabbits were randomized into four treatment groups prior to initiation of surgery. The rabbits were housed on a 12:12 light:dark cycle with food and water available ad libitum.
Double Uterine Horn Model: Rabbits were anesthetized with a mixture of 55 mg/kg ketamine hydrochloride and 5 mg/kg Rompum intramuscularly. Following preparation for sterile surgery, a midline laparotomy was performed. The uterine horns were exteriorized and traumatized by abrasion of the serosal surface with gauze until punctate bleeding developed. Ischemia of both uterine horns was induced by removal of the collateral blood supply. The remaining blood supply to the uterine horns was the ascending branches of the utero-vaginal arterial supply of the myometrium. Treated animals received 25 mL of either vehicle (lactated Ringers' solution with 0.1% Tween 20, 0.1% isopropyl alcohol), or vehicle with one of two doses of Compound Y (30 or 300 μg/kg). An additional group of animals received surgery only. The horns were then returned to their normal anatomic position and the midline sutured with 3-0 Vicryl. The animals were weighed before surgery and necropsy.
After 7 days, the rabbits were terminated and the percentage of the area of the horns adherent to various organs determined.
In addition an overall score which took into account all of the above data was given to each rabbit. The following scoring system was used:
The rabbits were scored by two independent observers that were blinded to the prior treatment of the animal. If there was disagreement as to the score to be assigned to an individual animal, the higher score was given.

hairless mice = assay: Full thickness wound healing mouse model; assay type: in vivo; details: daily oral 3 mg/kg, 5 days a week, 5 hairless mice per group, vs vehicle, FIG. 13
Description: One full thickness wound of 1 cm in diameter was marked using a template and the tissue was excised to the level of the panniculus carnosus using dissecting scissors and forceps. The wound healing was determined by drawing the wound margin with tracing film. The rate of wound healing is expressed as the percentage area remaining 5 hairless mice per group, daily oral treatment with 3 mg/kg of Compound Y, 5 days a week. Wound healing curve using the Boltzman equation and V50 (half time of wound healing) were calculated.

3T3-L1 cells = assay: Fibrin clot lysis by mouse fibroblasts 3T3-L1; assay type: cell-based; details: cells incubated overnight with 10^-6 to 10^-9 M; normalized to untreated cells; FIG. 7
Description: Confluent 3T3-L1 cells were incubated overnight with the following compounds: TGF-β1 5 ng/ml, Compound Y 10^−6, 10^−7, 10^−8 and 10^−9 M. After removing the supernatants, Fibrinolysis Buffer containing 3 μM fibrinogen and 100 nM plasminogen (“BM”) was added to each well. A fibrin clot was induced by adding 20 nM thrombin. Plates were incubated at 37° C. and clot density was determined by measuring optical density at 405 nm. Results were shown as relative fibrin clot density at different timepoints normalized to untreated cells.

C57/BL6 mice = assay: CLP (cecal ligation and puncture) mortality due to infection potentiation; assay type: in vivo, mouse; details: 30 mg/kg IP on the day of surgery; ten mice per group; vs vehicle; FIG. 15
Description: CLP (cecal ligation and puncture) was performed with 23G needle and 50-70% of cecal ligation. Compound Y 30 mg/kg was administered IP on the day of surgery. The mortality was checked twice a day. Ten C57/BL6 mice per group were used.

[6] = Serum calcium levels in DUH rabbit model animals; assay type: in vivo; details: both doses; prior to surgery, 24 hours after surgery and prior to necropsy; FIG. 12
Description: One ml of blood was drawn into red top tubes prior to surgery, 24 hours after surgery and prior to necropsy to allow the generation of serum to measure serum calcium levels. The blood was allowed to clot, the serum harvested by centrifugation and the serum calcium measured.

SMILES: C=C1/C(=C\C=C2/CCC[C@]3(C)C([C@@H](C)C/C=C/C(O)(CC)CC)=CC[C@@H]23)C[C@@H](O)C[C@@H]1F [Compound X, 1-alpha-fluoro-25-hydroxy-16,23E-diene-26,27-bishomo-20-epi-cholecalciferol]
- total adhesions score (Balb/c mice; 200 ug/kg i.p. once four hours after surgery, then oral 100 ug/kg once a day for 4 days, FIG. 1): significantly reduces
- adhesion score / length (mm) of caecum adherent to peritoneum, difference to vehicle groups (Balb/c mice): statistically significant
- serum calcium level [1]: slightly hypercalcemic

SMILES: CC(C)(O)CCCC(CCCC(C)(C)O)[C@H]1CC[C@H]2/C(=C/C=C3C[C@@H](O)C[C@H](O)C3)CCC[C@]12C [Compound Y, 1,25-dihydroxy-21-(3-hydroxy-3-methylbutyl)-19-nor-cholecalciferol]
- serum calcemia ([2]; high dosage (300 mg/kg)): Transient hypercalcemia
- TGF-b production (Human mesothelial cells): does not affect
- VEGF production (Human mesothelial cells): does not affect
- total adhesions score (Balb/c mice; 6 ug/kg i.p. once four hours after surgery, then orally 3 ug/kg once a day for 4 days, FIG. 2): significantly reduces
- adhesion score / length (mm) of caecum adherent to peritoneum, difference to vehicle groups (Balb/c mice): statistically significant
- serum calcemia [3]: no hypercalcemic effect
- cecal-peritoneal adhesion formation (mean in situ score) (CPSS mouse model): reduces cecal-peritoneal adhesion formation in a dose dependent manner
- tPA/PAI-1 ratio [4]: increased
- adhesion formation (overall adhesion score) ([5]; 30 or 300 ug/kg in 25 mL at surgery, 7 days, P<0.001 for both doses compared with both controls, FIG. 11): significantly reduced
- peritoneal inflammation, weight loss or hypercalcemia at necropsy ([5]; 30 or 300 ug/kg, necropsy after 7 days): No peritoneal inflammation, weight loss or hypercalcemia were observed
- efficacy in preventing adhesion formation compared with prior studies of icodextrin ([5]; DUH rabbit model, icodextrin data from Verco et al. 2000, FIG. 16): comparable efficacy
- efficacy in preventing adhesion formation compared with prior studies of lazaroids ([5]; DUH rabbit model, lazaroid data from Rodgers et al. 1998, FIG. 17): comparable efficacy
- wound healing (percentage wound area remaining, healing curve, V50) (hairless mice): No statistically significant difference; also recorded: does not delay wound healing
- fibrin clot lysis (relative fibrin clot density, OD 405 nm) (3T3-L1 cells): accelerates fibrin clot lysis by mouse fibroblasts in a dose dependent manner
- mortality (survival curves, log rank test) (C57/BL6 mice): no statistically significant difference
- serum calcium (signs of hypercalcemia) [6]: No signs of hypercalcemia

SMILES: C=C1/C(=C\C=C2/CCC[C@]3(C)[C@@H]([C@H](C)CCCC(C)(C)O)CC[C@@H]23)C[C@@H](O)C[C@@H]1O [calcitriol, reference compound]
- serum calcemia ([2]; 16 and 24 hours after administration): more pronounced and sustained hypercalcemia
- adhesion score / length (mm) of caecum adherent to peritoneum, difference to vehicle groups (Balb/c mice): statistically significant

SMILES: CCNC(=O)[C@@H]1CCCN1C(=O)[C@H](CCCNC(=N)N)NC(=O)[C@H](CC(C)C)NC(=O)[C@@H](CC(C)C)NC(=O)[C@H](Cc1ccc(O)cc1)NC(=O)[C@H](CO)NC(=O)[C@H](Cc1c[nH]c2ccccc12)NC(=O)[C@H](Cc1c[nH]cn1)NC(=O)[C@@H]1CCC(=O)N1 [leuprolide acetate, reference compound]
- total adhesion score (Balb/c mice; 1 mg/kg injected one week before surgery, sacrifice day 7, model validation, FIG. 6): statistically significant reduction
